# Target: T1, Human MTHFD2 (Homo sapiens, UniProt P13995)
# T1 construct: residues 36-350 in Uniport ID P13995; His6 (N); made in house; host or cells: E. coli
# T1 sequence (P13995 36-350): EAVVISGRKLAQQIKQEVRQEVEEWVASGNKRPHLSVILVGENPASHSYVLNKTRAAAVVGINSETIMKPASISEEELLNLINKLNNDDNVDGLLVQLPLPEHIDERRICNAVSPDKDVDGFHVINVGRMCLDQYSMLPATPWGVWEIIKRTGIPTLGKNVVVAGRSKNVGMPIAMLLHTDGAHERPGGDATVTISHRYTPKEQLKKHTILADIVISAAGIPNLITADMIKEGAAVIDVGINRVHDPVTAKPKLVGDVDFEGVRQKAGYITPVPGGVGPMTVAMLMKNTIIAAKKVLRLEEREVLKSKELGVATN
# Test: MTHFD2 Activity Assay (dehydrogenase activity, diaphorase/resazurin coupled fluorescence)
# Assay type: biochemical
# Details: inhibitory activity (IC50 and/or binding constant); 0.2 nM MTHFD2, 11 concentrations
# How it was run: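 Resorufin fluorescence (ex 525, em 598 nm) reports NADH formed by the dehydrogenase via diaphorase coupling. Enzyme (0.2 nM, residues 36-350, N-His6) sat with compound 15 min before 70 μM CH2-THF and 1 mM NAD+ started a 30 min reaction. IC50s come from 4-parameter fits over 11 concentrations.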
row,Structure (SMILES),IC50 [µM]
1,"Cn1c(Nc2ccncc2)nc2c1c(=O)n(Cc1ccc3ccccc3c1Cl)c(=O)n2C [Example 375, 1-((1-chloronaphthalen-2-yl)methyl)-3,7-dimethyl-8-(pyridin-4-ylamino)-1H-purine-2,6(3H,7H)-dione]",0.01 to 1
2,Cn1c(N2CCC(N)C2)nc2c1c(=O)n(Cc1cc3c(Cl)cccc3[nH]1)c(=O)n2C (stereo not shown) [Example 376],0.01 to 1
3,"Cc1ccc(Nc2nc3c(c(=O)n(Cc4cc5c(Cl)cccc5[nH]4)c(=O)n3C)n2C)nc1CCC(=O)O [Example 377, 3-(6-(1-((4-chloro-1H-indol-2-yl)methyl)-3,7-dimethyl-2,6-dioxo-2,3,6,7-tetrahydro-1H-purin-8-ylamino)-3-methylpyridin-2-yl)propanoic acid]",0.01 to 1
4,"Cn1c(Nc2ccnc(CCC(N)=O)n2)nc2c1c(=O)n(Cc1cc3c(Cl)cccc3[nH]1)c(=O)n2C [Example 378, 3-(4-(1-((4-chloro-1H-indol-2-yl)methyl)-3,7-dimethyl-2,6-dioxo-2,3,6,7-tetrahydro-1H-purin-8-ylamino)pyrimidin-2-yl)propanamide]",0.01 to 1
5,"COc1ccc(Nc2nc3c(c(=O)n(Cc4cc5c(Cl)cccc5[nH]4)c(=O)n3C)n2C)cn1 [Example 380, 1-((4-chloro-1H-indol-2-yl)methyl)-8-(6-methoxypyridin-3-ylamino)-3,7-dimethyl-1H-purine-2,6(3H,7H)-dione]",0.01 to 1
6,"Cn1c(Nc2ccc(Cl)nc2)nc2c1c(=O)n(Cc1cc3c(Cl)cccc3[nH]1)c(=O)n2C [Example 381, 1-((4-chloro-1H-indol-2-yl)methyl)-8-(6-chloropyridin-3-ylamino)-3,7-dimethyl-1H-purine-2,6(3H,7H)-dione]",0.01 to 1
7,"Cn1c(Nc2ccc(C(F)(F)F)nc2)nc2c1c(=O)n(Cc1cc3c(Cl)cccc3[nH]1)c(=O)n2C [Example 382, 1-((4-chloro-1H-indol-2-yl)methyl)-3,7-dimethyl-8-(6-(trifluoromethyl)pyridin-3-ylamino)-1H-purine-2,6(3H,7H)-dione]",0.01 to 1
8,"Cc1ccc(Nc2nc3c(c(=O)n(Cc4cc5c(Cl)cccc5[nH]4)c(=O)n3C)n2C)cn1 [Example 383, 1-((4-chloro-1H-indol-2-yl)methyl)-3,7-dimethyl-8-(6-methylpyridin-3-ylamino)-1H-purine-2,6(3H,7H)-dione]",0.01 to 1
9,"Cn1c(Nc2ccc(F)nc2)nc2c1c(=O)n(Cc1cc3c(Cl)cccc3[nH]1)c(=O)n2C [Example 384, 1-((4-chloro-1H-indol-2-yl)methyl)-8-(6-fluoropyridin-3-ylamino)-3,7-dimethyl-1H-purine-2,6(3H,7H)-dione]",0.01 to 1
10,"Cn1c(CCN)nc2c1c(=O)n(Cc1cc3c(Cl)cccc3[nH]1)c(=O)n2C [Example 386, 8-(2-aminoethyl)-1-((4-chloro-1H-indol-2-yl)methyl)-3,7-dimethyl-1H-purine-2,6(3H,7H)-dione]",0.01 to 1
11,"CCc1cccc2[nH]c(Cn3c(=O)c4c(nc(Nc5ccncc5)n4C)n(C)c3=O)cc12 [Example 387, 1-((4-ethyl-1H-indol-2-yl)methyl)-3,7-dimethyl-8-(pyridin-4-ylamino)-1H-purine-2,6(3H,7H)-dione]",0.01 to 1
12,"Cn1c(C(O)c2ccccc2)nc2c1c(=O)n(Cc1cc3c(Cl)cccc3[nH]1)c(=O)n2C (stereo not shown) [Example 388, 1-((4-chloro-1H-indol-2-yl)methyl)-8-(hydroxy(phenyl)methyl)-3,7-dimethyl-1H-purine-2,6(3H,7H)-dione]",0.01 to 1
13,"CC(N)c1nc2c(c(=O)n(Cc3cc4c(Cl)cccc4[nH]3)c(=O)n2C)n1C (stereo not shown) [Example 389, 8-(1-aminoethyl)-1-[(4-chloro-1H-indol-2-yl)methyl]-3,7-dimethyl-purine-2,6-dione]",0.01 to 1
14,"CC(=O)NS(=O)(=O)c1ccc(Nc2nc3c(c(=O)n(Cc4cc5c(Cl)cccc5[nH]4)c(=O)n3C)n2C)cc1 [Example 390, N-((4-((1-((4-chloro-1H-indol-2-yl)methyl)-3,7-dimethyl-2,6-dioxo-2,3,6,7-tetrahydro-1H-purin-8-yl)amino)phenyl)sulfonyl)acetamide]",0.01 to 1
15,"Cn1c(C2CCCNC2)nc2c1c(=O)n(Cc1cc3c(Cl)cccc3[nH]1)c(=O)n2C (stereo not shown) [Example 391, 1-[(4-chloro-1H-indol-2-yl)methyl]-3,7-dimethyl-8-(3-piperidyl)purine-2,6-dione]",0.01 to 1
16,"Cn1c(Nc2ccc(N3CCNCC3)cn2)nc2c1c(=O)n(Cc1cc3c(Cl)cccc3[nH]1)c(=O)n2C [Example 392, 1-[(4-chloro-1H-indol-2-yl)methyl]-3,7-dimethyl-8-[(5-piperazin-1-yl-2-pyridyl)amino]purine-2,6-dione]",0.01 to 1
17,"Cn1c(Nc2ccncc2)nc2c1c(=O)n(Cc1cc3ccncc3[nH]1)c(=O)n2C [Example 393, 1-((1H-pyrrolo[2,3-c]pyridin-2-yl)methyl)-3,7-dimethyl-8-(pyridin-4-ylamino)-1H-purine-2,6(3H,7H)-dione]",5 to 10
18,"Cn1c(=O)c2c(nc(CCN)n2C)n(C)c1=O [Example 394, 8-(2-aminoethyl)-1,3,7-trimethyl-1H-purine-2,6(3H,7H)-dione]",5 to 10
19,"Cn1c(N[C@@H]2CCC[C@@H]2N)nc2c1c(=O)n(Cc1cc3c(Cl)cccc3[nH]1)c(=O)n2C [Example 395, 8-((1R,2S)-2-aminocyclopentylamino)-1-((4-chloro-1H-indol-2-yl)methyl)-3,7-dimethyl-1H-purine-2,6(3H,7H)-dione]",1 to 5
20,"Cn1c(Nc2ccc(Cl)c(CCC(=O)O)n2)nc2c1c(=O)n(Cc1cc3c(Cl)cccc3[nH]1)c(=O)n2C [Example 396, 3-(3-chloro-6-(1-((4-chloro-1H-indol-2-yl)methyl)-3,7-dimethyl-2,6-dioxo-2,3,6,7-tetrahydro-1H-purin-8-ylamino)pyridin-2-yl)propanoic acid]",0.01 to 1
21,"Cn1c(Nc2ccc(-c3nnn[nH]3)cc2)nc2c1c(=O)n(Cc1cc3c(Cl)cccc3[nH]1)c(=O)n2C [Example 397, 8-((4-(1H-tetrazol-5-yl)phenyl)amino)-1-((4-chloro-1H-indol-2-yl)methyl)-3,7-dimethyl-1H-purine-2,6(3H,7H)-dione]",0.01 to 1
22,"Cn1c(Nc2cccc(-c3ccccc3)n2)nc2c1c(=O)n(Cc1cc3c(Cl)cccc3[nH]1)c(=O)n2C [Example 399, 1-[(4-chloro-1H-indol-2-yl)methyl]-3,7-dimethyl-8-[(6-phenyl-2-pyridyl)amino]purine-2,6-dione]",1 to 5
23,"Cn1c(Nc2ccc(-c3ccccc3)cn2)nc2c1c(=O)n(Cc1cc3c(Cl)cccc3[nH]1)c(=O)n2C [Example 400, 1-[(4-chloro-1H-indol-2-yl)methyl]-3,7-dimethyl-8-[(5-phenyl-2-pyridyl)amino]purine-2,6-dione]",1 to 5
24,"Cn1c(Nc2ccncc2)nc2c1c(=O)n(Cc1cc3c(C4CC4)cccc3[nH]1)c(=O)n2C [Example 401, 1-((4-cyclopropyl-1H-indol-2-yl)methyl)-3,7-dimethyl-8-(pyridin-4-ylamino)-1H-purine-2,6(3H,7H)-dione]",0.01 to 1
25,"Cn1c(Nc2ccncc2)nc2c1c(=O)n(Cc1ccc3c(Cl)cccc3c1)c(=O)n2C [Example 402, 1-((5-chloronaphthalen-2-yl)methyl)-3,7-dimethyl-8-(pyridin-4-ylamino)-1H-purine-2,6(3H,7H)-dione]",0.01 to 1

# Source: patent publication US12187728B2 (Raze Therapeutics, Inc., priority 2015, dated 2025)
